Laboratory results published in US20240308987A1, “SMALL MOLECULE INHIBITOR AGAINST NASOPHARYNGEAL CARCINOMA, PREPARATION METHOD AND APPLICATION THEREOF” (SHENZHEN BAY LABORATORY, priority 2021, published 2024).

What follows are compounds tested on C666-1 cells (assay: C666-1 Cell Viability Assay (Resazurin cytotoxicity test)). Details: Homo sapiens, C6661, EB virus-positive C666-1 cells, 72 hours treatment, 100-0.78 micromole/L, read-out: Inhibitory Rate.
Type: cell-based
Method in brief: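 EBV-positive nasopharyngeal carcinoma C666-1 cells, 5×10^3 per well, were grown 24 h, then exposed to compound for 72 h at 37 °C (8-point two-fold dilutions, final 100–0.78 µM). Viability was read by resazurin reduction fluorescence after 3 h; EC50 came from the fitted inhibition curve.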

SMILES	EC50 [nM]
COC(=O)c1cccc(N2CC(Oc3ccc(NC(=O)Cc4cccnc4)c(F)c3)C2)c1-c1ccccc1 [Example 54, methyl 6-(3-(3-fluoro-4-(2-(pyridin-3-yl)acetamido)phenoxy)azetidin-1-yl)-[1,1′-biphenyl]-2-carboxylate]	1000 to 10000
O=C(Cc1cccnc1)Nc1ccc(OC2CN(c3cccc(C(=O)O)c3-c3ccccc3)C2)cc1F [Example 54a, 6-(3-(3-fluoro-4-(2-(pyridin-3-yl)acetamido)phenoxy)azetidin-1-yl)-[1,1′-biphenyl]-2-carboxylic acid]	1000 to 10000
COC(=O)c1cccc(N2CC(Oc3ccc(NC(=O)Cc4cccnc4)cc3)C2)c1Cl [Example 55, methyl 2-chloro-3-(3-(4-(2-(pyridin-3-yl)acetamido)phenoxy)azetidin-1-yl) benzoate]	1000 to 10000
O=C(Cc1cccnc1)Nc1ccc(OC2CN(c3cccc(C(=O)O)c3Cl)C2)cc1 [Example 55a, 2-chloro-3-(3-(4-(2-(pyridin-3-yl)acetamido)phenoxy)azetidin-1-yl) benzoic acid]	10000 to 50000
COC(=O)c1cccc(N2CC(Oc3ccc(Cn4ccnc4)cc3)C2)c1-n1cccc1 [Example 56, methyl 3-(3-(4-((1H-imidazol-1-yl)methyl)phenoxy)azetidin-1-yl)-2-(1H-pyrrol-1-yl) benzoate]	10000 to 50000
O=C(O)c1cccc(N2CC(Oc3ccc(Cn4ccnc4)cc3)C2)c1-n1cccc1 [Example 56a, 3-(3-(4-((1H-imidazol-1-yl)methyl)phenoxy)azetidin-1-yl)-2-(1H-pyrrol-1-yl) benzoic acid]	10000 to 50000
COC(=O)c1cccc(C#Cc2ccc(NC(=O)Nc3cccnc3)cc2)c1-c1cccc(OCCO)c1 [Example 57, methyl 3′-(2-hydroxyethoxy)-6-((4-(3-(pyridin-3-yl)ureido)phenyl)ethynyl)-[1,1′-biphenyl]-2-carboxylate]	1000 to 10000
COC(=O)c1cccc(C#Cc2ccc(NC(=O)Nc3cccnc3)cc2)c1-c1ccccc1 [Example 58, methyl 6-((4-(3-(pyridin-3-yl)ureido)phenyl)ethynyl)-[1,1′-biphenyl]-2-carboxylate]	< 1000
O=C(Nc1ccc(C#Cc2cccc(C(=O)O)c2-c2ccccc2)cc1)Nc1cccnc1 [Example 58a, 6-((4-(3-(pyridin-3-yl)ureido)phenyl)ethynyl)-[1,1′-biphenyl]-2-carboxylic acid]	1000 to 10000
O=C(Nc1ccc(C#Cc2cccc(C(=O)NO)c2-c2ccccc2)cc1)Nc1cccnc1 [Example 58b, N-hydroxy-6-((4-(3-(pyridin-3-yl)ureido)phenyl)ethynyl)-[1,1′-biphenyl]-2-carboxamide]	< 1000
COC(=O)c1cccc(C#Cc2ccc(NC(=O)Nc3cccnc3)cc2)c1-c1ccc2cc[nH]c2c1 [Example 59, methyl 2-(1H-indol-6-yl)-3-((4-(3-(pyridin-3-yl)ureido)phenyl)ethynyl) benzoate]	< 1000
O=C(Nc1ccc(C#Cc2cccc(C(=O)O)c2-c2ccc3cc[nH]c3c2)cc1)Nc1cccnc1 [Example 59a, 2-(1H-indol-6-yl)-3-((4-(3-(pyridin-3-yl)ureido)phenyl)ethynyl) benzoic acid]	< 1000
COC(=O)c1cccc(C#Cc2ccc(CC(=O)Nc3cccnc3)cc2)c1-c1ccccc1 [Example 60, methyl 6-((4-(2-oxo-2-(pyridin-3-ylamino)ethyl)phenyl)ethynyl)-[1,1′-biphenyl]-2-carboxylate]	< 1000
O=C(Cc1ccc(C#Cc2cccc(C(=O)O)c2-c2ccccc2)cc1)Nc1cccnc1 [Example 60a, 6-((4-(2-oxo-2-(pyridin-3-ylamino)ethyl)phenyl)ethynyl)-[1,1′-biphenyl]-2-carboxylic acid]	< 1000
O=C(Cc1ccc(C#Cc2cccc(C(=O)NO)c2-c2ccccc2)cc1)Nc1cccnc1 [Example 60b, N-hydroxy-6-((4-(2-oxo-2-(pyridin-3-ylamino)ethyl)phenyl)ethynyl)-[1,1′-biphenyl]-2-carboxamide]	< 1000
COC(=O)c1cccc(C#Cc2ccc(CC(=O)Nc3cccnc3)cc2)c1-c1ccc2cc[nH]c2c1 [Example 61, methyl 2-(1H-indol-6-yl)-3-((4-(2-oxo-2-(pyridin-3-ylamino)ethyl)phenyl)ethynyl) benzoate]	< 1000
O=C(Cc1ccc(C#Cc2cccc(C(=O)O)c2-c2ccc3cc[nH]c3c2)cc1)Nc1cccnc1 [Example 61a, 2-(1H-indol-6-yl)-3-((4-(2-oxo-2-(pyridin-3-ylamino)ethyl)phenyl)ethynyl) benzoic acid]	< 1000
COC(=O)c1cccc(C#Cc2ccc(NC(=O)Cc3cccnc3)cc2)c1-c1ccccc1 [Example 62, methyl 6-((4-(2-(pyridin-3-yl)acetamido)phenyl)ethynyl)-[1,1′-biphenyl]-2-carboxylate]	< 1000
O=C(Cc1cccnc1)Nc1ccc(C#Cc2cccc(C(=O)O)c2-c2ccccc2)cc1 [Example 62a, 6-((4-(2-(pyridin-3-yl)acetamido)phenyl)ethynyl)-[1,1′-biphenyl]-2-carboxylic acid]	< 1000
COC(=O)c1cccc(C#Cc2ccc(NC(=O)Nc3cccnc3)cc2)c1-c1cccc(O)c1 [Example 63, methyl 3′-hydroxyl-6-((4-(3-(pyridin-3-yl)ureido)phenyl)ethynyl)-[1,1′-biphenyl]-2-carboxylate]	< 1000
